Measurements published in ChEMBL document CHEMBL5233229, “Recent advances in the development of ubiquitin-specific-processing protease 7 (USP7) inhibitors” (Eur J Med Chem, 2020).

Experiments:
HCT-116 = test: Anticancer activity against human HCT-116 cells assessed as cell growth inhibition incubated for 6 days by MTT assay; type: functional; details: HCT-116, 144 h, time 6 day, read-out: LD50 (the source's name)
[1] = Inhibition of USP2a (unknown origin); design: species or system Homo sapiens
[2] = target: T1, Ubiquitin carboxyl-terminal hydrolase 47 (Homo sapiens, UniProt Q96K76); test: Inhibition of USP47 (unknown origin)
T1 sequence (Q96K76 whole entry): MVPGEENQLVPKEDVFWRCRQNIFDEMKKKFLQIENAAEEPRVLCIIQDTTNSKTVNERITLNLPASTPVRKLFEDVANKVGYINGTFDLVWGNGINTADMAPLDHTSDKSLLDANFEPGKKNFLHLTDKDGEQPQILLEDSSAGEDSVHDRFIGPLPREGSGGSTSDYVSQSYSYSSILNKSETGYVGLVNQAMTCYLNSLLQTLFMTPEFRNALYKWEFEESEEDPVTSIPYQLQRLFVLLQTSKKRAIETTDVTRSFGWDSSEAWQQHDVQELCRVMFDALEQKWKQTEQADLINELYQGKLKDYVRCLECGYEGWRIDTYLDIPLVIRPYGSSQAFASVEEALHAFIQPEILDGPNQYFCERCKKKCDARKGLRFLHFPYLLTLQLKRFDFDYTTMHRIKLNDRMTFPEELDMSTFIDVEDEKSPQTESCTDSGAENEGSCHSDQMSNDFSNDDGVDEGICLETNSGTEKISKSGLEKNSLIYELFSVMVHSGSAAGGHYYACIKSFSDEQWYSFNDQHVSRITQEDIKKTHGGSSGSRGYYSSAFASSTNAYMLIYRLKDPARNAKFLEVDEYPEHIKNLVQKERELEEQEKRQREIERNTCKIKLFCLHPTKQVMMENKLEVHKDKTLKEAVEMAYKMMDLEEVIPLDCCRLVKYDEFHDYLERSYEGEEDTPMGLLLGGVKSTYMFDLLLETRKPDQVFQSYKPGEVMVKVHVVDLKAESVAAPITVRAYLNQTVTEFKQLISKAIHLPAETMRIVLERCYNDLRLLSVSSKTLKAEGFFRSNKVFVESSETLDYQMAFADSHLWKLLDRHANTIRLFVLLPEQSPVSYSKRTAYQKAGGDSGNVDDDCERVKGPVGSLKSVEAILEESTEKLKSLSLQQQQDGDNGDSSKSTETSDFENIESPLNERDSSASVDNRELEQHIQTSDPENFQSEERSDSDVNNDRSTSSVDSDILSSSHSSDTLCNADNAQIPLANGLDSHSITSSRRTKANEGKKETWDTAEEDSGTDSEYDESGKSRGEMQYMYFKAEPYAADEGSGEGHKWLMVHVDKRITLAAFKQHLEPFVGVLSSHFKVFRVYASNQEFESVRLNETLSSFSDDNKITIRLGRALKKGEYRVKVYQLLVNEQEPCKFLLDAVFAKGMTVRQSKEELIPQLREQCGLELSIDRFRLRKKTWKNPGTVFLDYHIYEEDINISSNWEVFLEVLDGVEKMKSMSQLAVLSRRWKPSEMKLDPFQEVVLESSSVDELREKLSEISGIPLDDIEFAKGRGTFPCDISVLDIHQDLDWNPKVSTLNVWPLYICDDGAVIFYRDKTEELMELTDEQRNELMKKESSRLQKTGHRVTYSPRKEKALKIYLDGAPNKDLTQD

[3] = target: T2, Ubiquitin carboxyl-terminal hydrolase 7 (Homo sapiens, UniProt Q93009); test: Inhibition of human USP7 using Ub-AMC as substrate
T2 sequence (Q93009 whole entry): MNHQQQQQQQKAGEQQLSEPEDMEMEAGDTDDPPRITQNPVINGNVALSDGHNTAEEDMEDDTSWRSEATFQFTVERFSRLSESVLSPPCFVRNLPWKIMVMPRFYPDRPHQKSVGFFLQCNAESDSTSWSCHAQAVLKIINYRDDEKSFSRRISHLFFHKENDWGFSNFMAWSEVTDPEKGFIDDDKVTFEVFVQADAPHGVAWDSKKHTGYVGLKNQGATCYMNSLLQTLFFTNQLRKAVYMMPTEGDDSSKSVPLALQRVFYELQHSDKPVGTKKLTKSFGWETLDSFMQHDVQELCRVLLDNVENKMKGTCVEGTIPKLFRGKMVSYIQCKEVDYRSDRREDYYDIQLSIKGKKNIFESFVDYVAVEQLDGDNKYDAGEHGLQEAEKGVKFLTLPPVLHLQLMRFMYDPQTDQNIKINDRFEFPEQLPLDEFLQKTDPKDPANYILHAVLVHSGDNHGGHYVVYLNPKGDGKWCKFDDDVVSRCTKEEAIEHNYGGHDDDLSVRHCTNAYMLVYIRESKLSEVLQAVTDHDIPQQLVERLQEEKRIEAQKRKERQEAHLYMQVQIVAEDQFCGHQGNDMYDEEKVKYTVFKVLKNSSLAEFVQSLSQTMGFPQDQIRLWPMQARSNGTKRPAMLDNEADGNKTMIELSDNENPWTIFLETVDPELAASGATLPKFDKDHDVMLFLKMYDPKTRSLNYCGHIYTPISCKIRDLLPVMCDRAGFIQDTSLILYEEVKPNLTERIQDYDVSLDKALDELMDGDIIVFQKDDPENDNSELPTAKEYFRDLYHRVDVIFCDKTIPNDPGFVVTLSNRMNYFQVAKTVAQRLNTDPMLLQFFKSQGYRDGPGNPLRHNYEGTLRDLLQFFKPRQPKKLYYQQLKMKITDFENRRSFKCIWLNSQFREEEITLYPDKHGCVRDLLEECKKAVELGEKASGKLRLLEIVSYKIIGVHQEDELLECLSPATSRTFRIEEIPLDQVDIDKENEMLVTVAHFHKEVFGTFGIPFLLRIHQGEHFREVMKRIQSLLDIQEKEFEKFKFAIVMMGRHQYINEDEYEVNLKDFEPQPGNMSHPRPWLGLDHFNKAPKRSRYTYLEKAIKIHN

[4] = target: T3, Ubiquitin carboxyl-terminal hydrolase 8 (Homo sapiens, UniProt P40818); test: Inhibition of human USP8 using Ub-AMC as substrate
T3 sequence (P40818 whole entry): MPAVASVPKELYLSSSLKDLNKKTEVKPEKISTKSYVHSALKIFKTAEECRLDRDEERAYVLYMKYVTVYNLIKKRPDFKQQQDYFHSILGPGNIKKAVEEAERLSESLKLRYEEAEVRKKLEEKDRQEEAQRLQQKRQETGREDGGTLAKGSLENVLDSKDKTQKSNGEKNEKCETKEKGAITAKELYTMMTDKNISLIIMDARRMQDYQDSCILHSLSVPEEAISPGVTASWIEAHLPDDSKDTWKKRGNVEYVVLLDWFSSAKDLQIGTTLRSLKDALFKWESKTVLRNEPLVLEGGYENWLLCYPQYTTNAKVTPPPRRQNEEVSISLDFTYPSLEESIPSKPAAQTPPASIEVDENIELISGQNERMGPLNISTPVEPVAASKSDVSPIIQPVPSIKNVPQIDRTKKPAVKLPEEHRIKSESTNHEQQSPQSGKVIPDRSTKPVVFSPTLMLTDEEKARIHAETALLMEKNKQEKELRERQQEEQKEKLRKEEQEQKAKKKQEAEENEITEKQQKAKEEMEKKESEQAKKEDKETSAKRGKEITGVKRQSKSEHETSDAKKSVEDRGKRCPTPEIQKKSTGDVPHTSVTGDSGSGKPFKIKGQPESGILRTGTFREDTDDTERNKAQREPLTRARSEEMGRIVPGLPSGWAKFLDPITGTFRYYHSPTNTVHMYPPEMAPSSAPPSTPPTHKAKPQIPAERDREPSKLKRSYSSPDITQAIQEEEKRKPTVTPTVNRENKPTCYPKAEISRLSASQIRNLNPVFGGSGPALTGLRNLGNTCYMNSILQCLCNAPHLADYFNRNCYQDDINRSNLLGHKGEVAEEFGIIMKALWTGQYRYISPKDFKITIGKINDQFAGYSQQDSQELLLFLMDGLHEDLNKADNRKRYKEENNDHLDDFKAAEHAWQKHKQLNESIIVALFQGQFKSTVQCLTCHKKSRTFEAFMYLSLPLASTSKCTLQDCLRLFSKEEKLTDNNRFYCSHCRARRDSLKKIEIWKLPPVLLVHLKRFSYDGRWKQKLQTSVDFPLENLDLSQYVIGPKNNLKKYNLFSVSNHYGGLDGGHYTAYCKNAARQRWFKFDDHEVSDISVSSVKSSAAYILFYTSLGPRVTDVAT

[5] = target: T2, Ubiquitin carboxyl-terminal hydrolase 7; test: Inhibition of human USP7 using UbA10 as substrate incubated for 10 mins by TR-FRET assay
[6] = target: T2, Ubiquitin carboxyl-terminal hydrolase 7; test: Inhibition of human USP7 using ubiquitin-Rh110 as substrate incubated for 30 mins by Fluorometric plate reader analysis
[7] = target: T2, Ubiquitin carboxyl-terminal hydrolase 7; test: Inhibition of USP7 (unknown origin) by Ub-PLA2 assay

Work on `C[C@H](CC(=O)NO)[C@H]1CC[C@H]2[C@@H]3CC[C@@H]4C[C@H](O)CC[C@]4(C)[C@H]3CC[C@]12C` yielded a CC50 (HCT-116) of 27.8 µM and an IC50 [1] of 9.7 µM.
Work on `C[C@H](CC(=O)NCC#N)[C@H]1CC[C@H]2[C@@H]3CC[C@@H]4C[C@H](O)CC[C@]4(C)[C@H]3C[C@H](O)[C@]12C` yielded a CC50 (HCT-116) of 28 µM and an IC50 [1] of 7.4 µM.
With `N#Cc1nc2c(nc1C#N)-c1ccc(O)cc1C2=O` the IC50 [2] was 66 µM.
In the case of `C[C@H](CC(=O)N1CCOCC1)[C@H]1CC[C@H]2[C@@H]3CC[C@@H]4C[C@H](O)CC[C@]4(C)[C@H]3CC[C@]12C`, the CC50 (HCT-116) is reported as 8.2 µM and the IC50 [1] is reported as > 100 µM.
`N#Cc1nc2c(nc1C#N)-c1cc(Cl)ccc1C2=O` gave an IC50 [3] of 2.55 µM and an IC50 [4] of 0.133 µM.
With `Nc1ncc(-c2ccc(O)cc2)cc1-c1ccc(O)cc1` the IC50 [5] was > 50 µM.
In the case of `COCCOc1nc2c(nc1C#N)C(=O)c1ccccc1-2`, the IC50 [2] is reported as > 100 µM.
With `C[C@H](CC(=O)NCCS(=O)(=O)O)[C@H]1CC[C@H]2[C@@H]3[C@H](O)C[C@@H]4C[C@H](O)CC[C@]4(C)[C@H]3C[C@H](O)[C@]12C` the CC50 (HCT-116) was > 50 µM.
With `COc1nc2c(nc1C#N)C(=O)c1ccccc1-2` the IC50 [2] was > 100 µM.
In the case of `C[C@H](C1=CC(=O)c2cc3c(cc2C1=O)C(=O)c1occ2c1[C@@]3(C)CCC2)C1=CC(=O)c2cc3c(cc2C1=O)[C@]1(C)CCCc2coc(c21)C3=O`, the IC50 [6] is reported as 0.49 µM.
With `C[C@H](CC(=O)O)[C@H]1CC[C@H]2[C@@H]3[C@H](O)C[C@@H]4C[C@H](O)CC[C@]4(C)[C@H]3C[C@H](O)[C@]12C` the CC50 (HCT-116) was > 50 µM.
Compound `N#Cc1nc2c(nc1C#N)-c1ccc(F)cc1C2=O` has an IC50 [2] of 4.3 µM.
With `C[C@@]12CCCc3coc(c31)C(=O)c1cc3c(cc12)[C@@]1(O)C[C@@H](O)N2CCS(=O)(=O)C(=C21)C3=O` the IC50 [6] was > 5 µM.
With `C[C@@]12CCCc3c(CCO)oc(c31)C(=O)c1cc3c(cc12)C(=O)C=CC3=O` the IC50 [6] was 1.4 µM.
For `C[C@@]12CCCc3coc(c31)C(=O)c1cc3c(cc12)[C@]1(O)C[C@H](O)N2CCS(=O)(=O)C(=C21)C3=O`, the IC50 [6] was > 5 µM.
In the case of `CC(=O)c1cc([N+](=O)[O-])c(Sc2ccc(Cl)cc2)s1`, the IC50 [7] is reported as 11.8 µM.
With `N#Cc1nc2c(nc1N)-c1ccccc1C2=O` the IC50 [2] was > 100 µM.
In the case of `CC(=O)c1cc([N+](=O)[O-])c(Sc2ccc(Cl)cc2Cl)s1`, the IC50 [7] is reported as 6.5 µM.
For `Nc1ncc(-c2ccccc2)cc1-c1ccc(O)cc1`, the IC50 [5] was 9.6 µM.
With `CCc1cc([N+](=O)[O-])c(Sc2cccc(Cl)c2Cl)s1` the IC50 [7] was > 50 µM.
For `C[C@H](CC(=O)O)[C@H]1CC[C@H]2[C@@H]3CC[C@@H]4CC(=O)CC[C@]4(C)[C@H]3CC[C@]12C`, the CC50 (HCT-116) was > 50 µM and the IC50 [1] was 32 µM.
Work on `CC(=O)c1cc([N+](=O)[O-])c(Sc2ccccc2Cl)s1` yielded an IC50 [7] of 12.9 µM.
In the case of `N#Cc1nc2c(nc1N1CCC(F)(F)CC1)-c1ccccc1C2=O`, the IC50 [2] is reported as > 100 µM.
